Measured values: patent US20210244721A1, “SMALL MOLECULE ENTEROVIRUS INHIBITORS AND USES THEREOF” (priority 2020, published 2021)

The molecules below were run on RD cells (assay: Cytotoxicity, neutral red method, RD cells). Conditions: RD cells, neutral red method.

| Structure (SMILES) | CC50 |
| --- | --- |
| CC(C)Oc1cc(C(=O)NCCN(C)C)c2ccccc2n1 [Compound 8a, N-[2-(dimethylamino)ethyl]-2-(propan-2-yloxy)quinoline-4-carboxamide] | 38.5 ± 1.5 µM |
| CCN(CC)CCNC(=O)c1cc(-c2ccncc2)nc2ccccc12 [Compound 6i, N-[2-(diethylamino)ethyl]-2-(pyridin-4-yl)quinoline-4-carboxamide] | 174 ± 55.6 µM |
| CN(C)CCCNC(=O)c1cc(-c2cccs2)nc2ccccc12 [Compound 12b, N-[3-(dimethylamino)propyl]-2-(thiophen-2-yl)quinoline-4-carboxamide] | 40.5 ± 14 µM |
| CN(C)c1ccc(NC(=O)c2cc(-c3ccccc3)nc3ccccc23)cc1 [Compound 10f, N-[4-(dimethylamino)phenyl]-2-phenylquinoline-4-carboxamide] | > 350 µM |
| CC(C)Oc1cc(C(=O)NCCN2CCCC2)c2ccccc2n1 [Compound 8e, 2-(propan-2-yloxy)-N-[2-(pyrrolidin-1-yl)ethyl]quinoline-4-carboxamide] | 36.9 ± 20.1 µM |
| CCC(C)Oc1cc(C(=O)NCCN(CC)CC)c2ccccc2n1 (stereo not shown) [Compound 5f, 2-(butan-2-yloxy)-N-[2-(diethylamino)ethyl]quinoline-4-carboxamide] | 15.7 ± 1.1 µM |
| NNC(=O)c1cc(-c2ccccc2)nc2ccccc12 [Compound 10d, 2-phenylquinoline-4-carbohydrazide] | > 300 µM |
| CCOCCOc1cc(C(=O)NCCN(CC)CC)c2ccccc2n1 [Compound 5j, N-[2-(diethylamino)ethyl]-2-(2-ethoxyethoxy)quinoline-4-carboxamide] | 144 ± 40.5 µM |
| N=C(N)NC(=O)c1cc(-c2ccccc2)nc2ccccc12 [Compound 10e, N-carbamimidoyl-2-phenylquinoline-4-carboxamide] | > 250 µM |
| CC(C)Oc1cc(C(=O)NCCCN(C)C)c2ccccc2n1 [Compound 8c, N-[3-(dimethylamino)propyl]-2-(propan-2-yloxy)quinoline-4-carboxamide] | 122 ± 39.2 µM |
| CCN(CC)CCNC(=O)c1cc(-c2ccn[nH]2)nc2ccccc12 [Compound 6a, N-[2-(diethylamino)ethyl]-2-(1H-pyrazol-5-yl)quinoline-4-carboxamide] | 132 ± 53.3 µM |
| CCC(CC)Oc1cc(C(=O)NCCN(CC)CC)c2ccccc2n1 [Compound 5h, N-[2-(diethylamino)ethyl]-2-(pentan-3-yloxy)quinoline-4-carboxamide] | 9.5 ± 1.1 µM |
| CN(C)CCCNC(=O)c1cc(-c2ccccc2)nc2ccccc12 [Compound 10h, N-[3-(dimethylamino)propyl]-2-phenylquinoline-4-carboxamide] | 44.9 ± 17.7 µM |
| CCN(CC)CCNC(=O)c1cc(-c2ccc3c(c2)OCCO3)nc2ccccc12 [Compound 6t, N-[2-(diethylamino)ethyl]-2-(2,3-dihydro-1,4-benzodioxin-6-yl)quinoline-4-carboxamide] | 49.9 ± 13.8 µM |
| CCN(CC)CCNC(=O)c1cc(-c2c(C)noc2C)nc2ccccc12 [Compound 6h, N-[2-(diethylamino)ethyl]-2-(3,5-dimethyl-1,2-oxazol-4-yl)quinoline-4-carboxamide] | 129 ± 67.2 µM |
| CCN(CC)CCNC(=O)c1cc(OC2CCCC2)nc2ccccc12 [Compound 5i, 2-(cyclopentyloxy)-N-[2-(diethylamino)ethyl]quinoline-4-carboxamide] | 11.7 ± 1.2 µM |
| CCN(CC)CCNC(=O)c1cc(-c2cnn(C)c2)nc2ccccc12 [Compound 6b, N-[2-(diethylamino)ethyl]-2-(1-methyl-1H-pyrazol-4-yl)quinoline-4-carboxamide] | 251 ± 28.3 µM |
| CCN(CC)CCNC(=O)c1cc(-c2ccnn2C)nc2ccccc12 [Compound 6c, N-[2-(diethylamino)ethyl]-2-(1-methyl-1H-pyrazol-5-yl)quinoline-4-carboxamide] | 133 ± 28.7 µM |
| NNC(=O)c1cc(-c2cccs2)nc2ccccc12 [Compound 12e, 2-(thiophen-2-yl)quinoline-4-carbohydrazide] | > 100 µM |

| Structure (SMILES) | CC50 |
| --- | --- |
| O=C(NCCN1CCCC1)c1cc(-c2ccccc2)nc2ccccc12 [Compound 10g, 2-phenyl-N-[2-(pyrrolidin-1-yl)ethyl]quinoline-4-carboxamide] | 46.7 ± 8.3 µM |
| CCN(CC)CCNC(=O)c1cc(-c2cnc(OC)nc2)nc2ccccc12 [Compound 6q, N-[2-(diethylamino)ethyl]-2-(2-methoxypyrimidin-5-yl)quinoline-4-carboxamide] | 174 ± 20.3 µM |
| O=C(NCCCn1ccnc1)c1cc(-c2cccs2)nc2ccccc12 [Compound 12d, N-[3-(1H-imidazol-1-yl)propyl]-2-(thiophen-2-yl)quinoline-4-carboxamide] | 55.7 ± 3.5 µM |
| CCN(CC)CCNC(=O)c1cc(OCC2CC2)nc2ccccc12 [Compound 5g, 2-(cyclopropylmethoxy)-N-[2-(diethylamino)ethyl]quinoline-4-carboxamide] | 38.5 ± 16.8 µM |
| CCN(CC)CCNC(=O)c1cc(OCC(F)(F)F)nc2ccccc12 [Compound 5c, N-[2-(diethylamino)ethyl]-2-(2,2,2-trifluoroethoxy)quinoline-4-carboxamide] | 33.1 ± 1.8 µM |
| CCN(CC)CCNC(=O)c1cc(-c2cnc(N(C)C)nc2)nc2ccccc12 [Compound 6p, N-[2-(diethylamino)ethyl]-2-[2-(dimethylamino)pyrimidin-5-yl]quinoline-4-carboxamide] | 74.2 ± 7 µM |
| CCN(CC)CCNC(=O)c1cc(-c2ccc(CN3CCOCC3)cc2)nc2ccccc12 [Compound 6o, N-[2-(diethylamino)ethyl]-2-{4-[(morpholin-4-yl)methyl]phenyl}quinoline-4-carboxamide] | 79.2 ± 8 µM |
| CCOc1cc(C(=O)NCCN(CC)CC)c2ccccc2n1 [Compound 5b, N-[2-(diethylamino)ethyl]-2-ethoxyquinoline-4-carboxamide] | 165 ± 57.6 µM |
| CCN(CC)CCNC(=O)c1cc(-c2ccc(-c3ccccc3)cc2)nc2ccccc12 [Compound 6u, 2-{[1,1′-biphenyl]-4-yl}-N-[2-(diethylamino)ethyl]quinoline-4-carboxamide] | 9.8 ± 0.5 µM |
| CC(C)Oc1cc(C(=O)NCCN2CCOCC2)c2ccccc2n1 [Compound 8d, N-[2-(morpholin-4-yl)ethyl]-2-(propan-2-yloxy)quinoline-4-carboxamide] | > 250 µM |
| CCN(CC)CCNC(=O)c1cc(-c2ccccc2OC)nc2ccccc12 [Compound 6k, N-[2-(diethylamino)ethyl]-2-(2-methoxyphenyl)quinoline-4-carboxamide] | 75.9 ± 6.4 µM |
| CCN(CC)CCCNC(=O)c1cc(-c2ccccc2)nc2ccccc12 [Compound 10b, N-[3-(diethylamino)propyl]-2-phenylquinoline-4-carboxamide] | 45.4 ± 14 µM |
| CC(C)Oc1cc(C(=O)NC2CCN(C)CC2)c2ccccc2n1 [Compound 8g, N-(1-methylpiperidin-4-yl)-2-(propan-2-yloxy)quinoline-4-carboxamide] | 101 ± 8.8 µM |
| CCCOc1cc(C(=O)NCCN(CC)CC)c2ccccc2n1 [Compound 5d, N-[2-(diethylamino)ethyl]-2-propoxyquinoline-4-carboxamide] | 46.7 ± 14.7 µM |
| CC(C)Oc1cc(C(=O)NCCN2CCN(C)CC2)c2ccccc2n1 [Compound 8f, N-[2-(4-methylpiperazin-1-yl)ethyl]-2-(propan-2-yloxy)quinoline-4-carboxamide] | 88.8 ± 21.5 µM |
| CCN(CC)CCNC(=O)c1cc(OCc2ccccc2)nc2ccccc12 [Compound 5k, 2-(benzyloxy)-N-[2-(diethylamino)ethyl]quinoline-4-carboxamide] | 13.5 ± 2.9 µM |
| CCN(CC)CCNC(=O)c1cc(-c2ccc(COC)cc2)nc2ccccc12 [Compound 6n, N-[2-(diethylamino)ethyl]-2-[4-(methoxymethyl)phenyl]quinoline-4-carboxamide] | 46.6 ± 2.4 µM |
| CC(C)Oc1cc(C(=O)NCCN)c2ccccc2n1 [Compound 8b, N-(2-aminoethyl)-2-(propan-2-yloxy)quinoline-4-carboxamide] | 149 ± 15.3 µM |

Same assay, conditions: Table 6; RD cells

| Structure (SMILES) | CC50 |
| --- | --- |
| CN(C)CCNC(=O)c1cc(-c2ccccc2)nc2ccc(Cl)cc12 [Compound 15a, 6-chloro-N-[2-(dimethylamino)ethyl]-2-phenylquinoline-4-carboxamide] | 14.3 ± 0.8 µM |
| CCN(CC)CCNC(=O)c1cc(-c2ccccc2)nc2ccc(OC)cc12 [Compound 15d, N-[2-(diethylamino)ethyl]-6-methoxy-2-phenylquinoline-4-carboxamide] | 27.5 ± 7.3 µM |
| CN(C)CCNC(=O)c1cc(-c2ccccc2)nc2ccc(F)cc12 [Compound 19a, N-[2-(dimethylamino)ethyl]-6-fluoro-2-phenylquinoline-4-carboxamide] | 38.8 ± 19 µM |
| CCN(CC)CCNC(=O)c1cc(-c2ccccc2)nc2ccc(Cl)cc12 [Compound 15b, 6-chloro-N-[2-(diethylamino)ethyl]-2-phenylquinoline-4-carboxamide] | 13.5 ± 8.1 µM |
| CCN(CC)CCNC(=O)c1cc(-c2ccccc2)nc2ccc(F)cc12 [Compound 19b, N-[2-(diethylamino)ethyl]-6-fluoro-2-phenylquinoline-4-carboxamide] | 24.9 ± 1.5 µM |
| COc1ccc2nc(-c3ccccc3)cc(C(=O)NCCN(C)C)c2c1 [Compound 15c, N-[2-(dimethylamino)ethyl]-6-methoxy-2-phenylquinoline-4-carboxamide] | 31.8 ± 1.3 µM |

These molecules were tested on EV-D68 US/KY/14-18953 virus (assay: CPE assay, EV-D68 US/KY/14-18953 in RD cells). Conditions: EV-D68 US/KY/14-18953, RD cells.
Assay type: cell-based, Enterovirus D68 (EV-D68)

| Structure (SMILES) | SI = selectivity index (CC50/EC50) |
| --- | --- |
| CN(C)c1ccc(NC(=O)c2cc(-c3ccccc3)nc3ccccc23)cc1 [Compound 10f, N-[4-(dimethylamino)phenyl]-2-phenylquinoline-4-carboxamide] | >3.5 |
| NNC(=O)c1cc(-c2ccccc2)nc2ccccc12 [Compound 10d, 2-phenylquinoline-4-carbohydrazide] | >3 |
| N=C(N)NC(=O)c1cc(-c2ccccc2)nc2ccccc12 [Compound 10e, N-carbamimidoyl-2-phenylquinoline-4-carboxamide] | >7.2 |
| NNC(=O)c1cc(-c2cccs2)nc2ccccc12 [Compound 12e, 2-(thiophen-2-yl)quinoline-4-carbohydrazide] | >8.4 |
| CC(C)Oc1cc(C(=O)NCCN2CCOCC2)c2ccccc2n1 [Compound 8d, N-[2-(morpholin-4-yl)ethyl]-2-(propan-2-yloxy)quinoline-4-carboxamide] | >14.3 |

Same assay, conditions: EV-D68 US/KY/14-18953, RD cells, CPE assay; read-out: EC50

| Structure (SMILES) | EC50 |
| --- | --- |
| NCCNC(=O)c1cc(-c2cccs2)nc2ccccc12 [Compound 6bl, N-(2-aminoethyl)-2-(thiophen-2-yl)quinoline-4-carboxamide] | 0.4 µM |
| CN(C)CCNC(=O)c1cc(-c2ccco2)nc2ccccc12 [Compound 6bo, N-[2-(dimethylamino)ethyl]-2-(furan-2-yl)quinoline-4-carboxamide] | 1.1 µM |

Same assay, conditions: Enterovirus D, EVD68, RD, EV-D68 US/KY/14-18953, RD cells, CPE assay

| Structure (SMILES) | EC50 |
| --- | --- |
| CN(C)CCNC(=O)c1cc(-c2ccco2)nc2ccccc12 [Compound 6bo, N-[2-(dimethylamino)ethyl]-2-(furan-2-yl)quinoline-4-carboxamide] | < 1 µM |

Same assay, conditions: Enterovirus D, EVD68, RD, EV-D68 US/KY/14-18953, RD cells, CPE assay; read-out: EC50

| Structure (SMILES) | EC50 |
| --- | --- |
| CNCCNC(=O)c1cc(-c2ccccc2)nc2ccccc12 [Compound 6af, N-[2-(methylamino)ethyl]-2-phenylquinoline-4-carboxamide] | 0.9 µM |
